Experimental data published in patent publication US9938281B2 (Merck Sharp & Dohme Corp., priority 2012, dated 2018).

Columns and labels:
PI3K-delta = target: T1, PI3K-delta (Homo sapiens, UniProt O00329); assay: HTRF PI3K biochemical assay, delta isoform; conditions: form screened (neutral or TFA salt) given, read-out: PI3Kdelta IC50
T1 construct: purchased Upstate; Millipore 14-604

PI3K-alpha = target: T2, PI3K-alpha (Homo sapiens, UniProt P42336); assay: HTRF PI3K biochemical assay, alpha isoform; conditions: ratio PI3K-alpha IC50 value / PI3K-delta IC50 value
T2 construct: purchased Upstate; Millipore 14-602
T2 sequence (P42336 whole entry, canonical isoform): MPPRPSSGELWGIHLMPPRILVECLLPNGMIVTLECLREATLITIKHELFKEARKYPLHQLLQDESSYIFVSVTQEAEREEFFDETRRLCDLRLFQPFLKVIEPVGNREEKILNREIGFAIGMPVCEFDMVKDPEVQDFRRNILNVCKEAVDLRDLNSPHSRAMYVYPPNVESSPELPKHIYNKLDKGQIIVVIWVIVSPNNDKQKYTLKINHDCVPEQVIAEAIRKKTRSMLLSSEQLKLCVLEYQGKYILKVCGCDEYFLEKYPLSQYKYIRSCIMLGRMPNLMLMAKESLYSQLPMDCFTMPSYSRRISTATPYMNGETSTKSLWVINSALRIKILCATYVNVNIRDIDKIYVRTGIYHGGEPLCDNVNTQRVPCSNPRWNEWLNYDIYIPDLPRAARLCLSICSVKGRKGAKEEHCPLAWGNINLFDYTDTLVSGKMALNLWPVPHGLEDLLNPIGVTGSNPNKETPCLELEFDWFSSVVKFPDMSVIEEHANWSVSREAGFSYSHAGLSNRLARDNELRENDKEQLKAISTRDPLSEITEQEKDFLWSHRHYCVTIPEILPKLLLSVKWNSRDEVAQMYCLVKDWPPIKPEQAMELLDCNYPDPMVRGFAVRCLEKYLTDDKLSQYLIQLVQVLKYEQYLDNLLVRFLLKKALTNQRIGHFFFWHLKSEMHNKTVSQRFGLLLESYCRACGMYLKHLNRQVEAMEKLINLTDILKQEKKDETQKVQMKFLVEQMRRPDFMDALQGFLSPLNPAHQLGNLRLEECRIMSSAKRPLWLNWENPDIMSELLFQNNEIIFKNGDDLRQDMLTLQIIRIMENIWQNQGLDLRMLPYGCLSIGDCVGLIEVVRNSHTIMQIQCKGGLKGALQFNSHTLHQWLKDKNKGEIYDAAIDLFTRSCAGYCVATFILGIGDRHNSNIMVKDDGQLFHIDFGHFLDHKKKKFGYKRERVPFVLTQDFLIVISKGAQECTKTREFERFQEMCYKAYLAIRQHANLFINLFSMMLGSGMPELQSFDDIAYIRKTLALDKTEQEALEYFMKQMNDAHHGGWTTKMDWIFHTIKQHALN
T2 sequence (P27986 whole entry partner, canonical isoform): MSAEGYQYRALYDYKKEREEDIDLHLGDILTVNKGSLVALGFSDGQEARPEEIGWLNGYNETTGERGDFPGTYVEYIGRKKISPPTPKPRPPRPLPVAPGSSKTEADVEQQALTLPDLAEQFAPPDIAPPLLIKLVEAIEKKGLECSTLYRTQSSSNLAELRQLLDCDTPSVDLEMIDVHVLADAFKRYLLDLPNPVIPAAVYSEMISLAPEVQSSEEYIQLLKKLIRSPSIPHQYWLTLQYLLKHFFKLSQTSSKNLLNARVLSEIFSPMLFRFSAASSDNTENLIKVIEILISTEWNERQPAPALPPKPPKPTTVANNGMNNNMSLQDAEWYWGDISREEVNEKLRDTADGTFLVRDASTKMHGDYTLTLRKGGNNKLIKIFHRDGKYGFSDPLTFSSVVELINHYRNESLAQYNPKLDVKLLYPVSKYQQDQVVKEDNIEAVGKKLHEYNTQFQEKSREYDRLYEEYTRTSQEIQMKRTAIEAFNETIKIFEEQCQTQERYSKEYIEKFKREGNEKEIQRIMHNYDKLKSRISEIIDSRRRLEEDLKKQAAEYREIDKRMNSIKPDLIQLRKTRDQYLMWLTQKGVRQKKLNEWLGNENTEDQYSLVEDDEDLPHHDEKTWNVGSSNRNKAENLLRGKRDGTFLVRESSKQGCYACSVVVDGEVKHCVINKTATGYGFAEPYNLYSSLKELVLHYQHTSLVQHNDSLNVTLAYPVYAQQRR

T1 sequence (O00329 whole entry, canonical isoform): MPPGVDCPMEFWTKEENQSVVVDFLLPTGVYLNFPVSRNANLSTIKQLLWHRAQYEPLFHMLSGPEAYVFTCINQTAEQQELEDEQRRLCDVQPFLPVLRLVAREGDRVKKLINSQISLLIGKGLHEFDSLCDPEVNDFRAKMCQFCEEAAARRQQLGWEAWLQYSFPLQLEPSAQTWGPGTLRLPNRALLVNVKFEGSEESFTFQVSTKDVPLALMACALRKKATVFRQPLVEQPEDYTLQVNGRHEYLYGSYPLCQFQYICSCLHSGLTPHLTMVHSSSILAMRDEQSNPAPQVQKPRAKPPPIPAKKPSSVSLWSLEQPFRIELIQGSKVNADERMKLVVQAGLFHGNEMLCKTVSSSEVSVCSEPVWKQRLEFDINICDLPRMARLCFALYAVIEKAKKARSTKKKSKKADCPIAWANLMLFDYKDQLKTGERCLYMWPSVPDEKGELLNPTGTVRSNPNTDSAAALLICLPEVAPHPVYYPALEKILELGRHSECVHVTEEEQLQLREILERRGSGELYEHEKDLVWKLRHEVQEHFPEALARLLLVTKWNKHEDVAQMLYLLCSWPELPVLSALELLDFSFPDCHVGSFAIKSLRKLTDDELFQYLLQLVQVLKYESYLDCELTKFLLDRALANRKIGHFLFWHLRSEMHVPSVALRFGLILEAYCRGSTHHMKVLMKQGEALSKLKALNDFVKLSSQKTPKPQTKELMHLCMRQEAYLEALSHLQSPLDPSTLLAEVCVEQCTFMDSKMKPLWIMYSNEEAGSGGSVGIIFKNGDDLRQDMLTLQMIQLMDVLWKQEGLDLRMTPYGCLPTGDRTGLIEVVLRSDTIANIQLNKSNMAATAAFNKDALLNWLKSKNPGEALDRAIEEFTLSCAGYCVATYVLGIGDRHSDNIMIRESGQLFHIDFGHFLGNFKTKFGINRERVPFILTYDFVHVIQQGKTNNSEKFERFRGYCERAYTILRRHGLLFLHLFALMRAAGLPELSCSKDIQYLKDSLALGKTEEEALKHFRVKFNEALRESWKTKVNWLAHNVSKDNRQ
T1 sequence (P27986 whole entry partner, canonical isoform): as the sequence (P27986 whole entry partner, canonical isoform) above

Row | IC50 (PI3K-delta) [nM] | Selectivity versus PI3Kalpha (PI3K-alpha) | Compound
1 | 1 | >10 | CCn1c(-c2cnc(C)nc2)nc2c(N[C@H]3CCN(C(=O)C4CC4(C)C)C3)ncnc21 (mixture of isomers) [Compound 2-56, N-{(3S)-1-[((R and S)-2,2-dimethylcyclopropyl)carbonyl]pyrrolidin-3-yl}-9-ethyl-8-(2-methylpyrimidin-5-yl)-9H-purin-6-amine]
2 | 34 | >10 | CCn1c(-c2cnc(C)nc2)nc2c(NC3CN(C(=O)C4CC4)CC3F)ncnc21 (racemic) [Compound 3-26, N-[(3R,4S and 3S,4R)-1-(cyclopropylcarbonyl)-4-fluoropyrrolidin-3-yl]-9-ethyl-8-(2-methylpyrimidin-5-yl)-9H-purin-6-amine]
3 | 140 | >10 | CCn1c(C(=O)N2CCOCC2)nc2c(N[C@H]3CCN(C(=O)C4CC4)C3)ncnc21 [Compound 6-4, N-[(3S)-1-(cyclopropylcarbonyl)pyrrolidin-3-yl]-9-ethyl-8-(morpholin-4-ylcarbonyl)-9H-purin-6-amine]
4 | 11 | >10 | CCn1ncc(-c2nc3c(N[C@H]4CCCN(C(=O)C5CCOCC5)C4)ncnc3n2C)c1C [Compound 2-29, 8-(1-ethyl-5-methyl-1H-pyrazol-4-yl)-9-methyl-N-[(3S)-1-(tetrahydro-2H-pyran-4-ylcarbonyl)piperidin-3-yl]-9H-purin-6-amine]
5 | 13 | >10 | CCn1c(-c2cnc(C)nc2)nc2c(NC3CCCC(=O)N(CC4CC4)C3)ncnc21 (single isomer, unassigned) [Compound 14-7, (R or S)-1-(cyclopropylmethyl)-6-{[9-ethyl-8-(2-methylpyrimidin-5-yl)-9H-purin-6-yl]amino}azepan-2-one]
6 | 4.6 | >10 | CCn1c(-c2cnc(C)nc2)nc2c(N[C@H]3C[C@H](C(=O)NCCO)N(c4ccccn4)C3)ncnc21 [Compound 15-12, (4S)-4-{[9-ethyl-8-(2-methylpyrimidin-5-yl)-9H-purin-6-yl]amino}-N-(2-hydroxyethyl)-1-pyridin-2-yl-D-prolinamide]
7 | 2.9 | >10 | CCn1c(-c2cnc(C)nc2)nc2c(N[C@H]3CCN(C(=O)N4CC[C@@H](F)C4)C3)ncnc21 [Compound 12-12, 9-ethyl-N-[(3S)-1-{[(3R)-3-fluoropyrrolidin-1-yl]carbonyl}pyrrolidin-3-yl]-8-(2-methylpyrimidin-5-yl)-9H-purin-6-amine]
8 | 67 | >10 | CCC(=O)N1CC[C@H](Nc2ncnc3c2nc(-c2cnn(CC)c2C)n3CC2CC2)C1 [Compound 9-3, 9-(cyclopropylmethyl)-8-(1-ethyl-5-methyl-1H-pyrazol-4-yl)-N-[(3S)-1-propanoylpyrrolidin-3-yl]-9H-purin-6-amine]
9 | < 1 | >10 | CCn1c(-c2ccc(OC)nc2)nc2c(N[C@H]3CCN(C(=O)OC(C)(C)C)C3)ncnc21 [Compound 1-23, tert-butyl (3S)-3-{[9-ethyl-8-(6-methoxypyridin-3-yl)-9H-purin-6-yl]amino}pyrrolidine-1-carboxylate]
10 | 8.2 | >10 | CCn1c(-c2cnc(C)nc2)nc2c(N[C@H]3CCN(C(=O)OCC(C)(C)C)C3)ncnc21 [Compound 13-4, 2,2-dimethylpropyl (3S)-3-{[9-ethyl-8-(2-methylpyrimidin-5-yl)-9H-purin-6-yl]amino}pyrrolidine-1-carboxylate]
11 | 1.5 | >10 | CCn1c(-c2cnc(C)nc2)nc2c(N[C@H]3CCN(C(=O)C4CC4(F)F)C3)ncnc21 (mixture of isomers) [Compound 2-55, N-{(3S)-1-[((R and S)-2,2-difluorocyclopropyl)carbonyl]pyrrolidin-3-yl}-9-ethyl-8-(2-methylpyrimidin-5-yl)-9H-purin-6-amine]
12 | < 1 | >10 | CCn1c(-c2cnc(C)nc2)nc2c(N[C@H]3CCN(C(=O)N4CC(OC)C4)C3)ncnc21 [Compound 12-10, 9-ethyl-N-{(3S)-1-[(3-methoxyazetidin-1-yl)carbonyl]pyrrolidin-3-yl}-8-(2-methylpyrimidin-5-yl)-9H-purin-6-amine]
13 | 11 | >10 | CCn1c(C(F)F)nc2c(N[C@H]3CCN(C(=O)[C@H]4C[C@@H](OC)C4)C3)ncnc21 [Compound 7-18, 8-(difluoromethyl)-9-ethyl-N-{(3S)-1-[(cis-3-methoxycyclobutyl)carbonyl]pyrrolidin-3-yl}-9H-purin-6-amine]
14 | 5.8 | >10 | CCn1c(-c2cnc(C)nc2)nc2c(N[C@H]3C[C@H](C(=O)NCCO)N(C(=O)C4CC4)C3)ncnc21 [Compound 15-7, (4S)-1-(cyclopropylcarbonyl)-4-{[9-ethyl-8-(2-methylpyrimidin-5-yl)-9H-purin-6-yl]amino}-N-(2-hydroxyethyl)-D-prolinamide]
15 | 1.4 | >10 | CCn1c(-c2cnc(C)nc2)nc2c(N[C@H]3CCN(C(=O)NC(C)(C)CC(C)(C)C)C3)ncnc21 [Compound 12-25, (3S)-3-{[9-ethyl-8-(2-methylpyrimidin-5-yl)-9H-purin-6-yl]amino}-N-(1,1,3,3-tetramethylbutyl)pyrrolidine-1-carboxamide]
16 | 12 | >10 | CCn1c(-c2cnc(C)nc2)nc2c(N[C@H]3C[C@H](C(=O)NC)N(C(=O)C4CC4)C3)ncnc21 [Compound 15-3, (4S)-1-(cyclopropylcarbonyl)-4-{[9-ethyl-8-(2-methylpyrimidin-5-yl)-9H-purin-6-yl]amino}-N-methyl-D-prolinamide]
17 | 10 | >10 | CCn1c(-c2cnc(C)nc2)nc2c(N[C@H]3CCN(C(=O)C4(O)CC4)C3)ncnc21 [Compound 2-66, 1-{[(3S)-3-{[9-ethyl-8-(2-methylpyrimidin-5-yl)-9H-purin-6-yl]amino}pyrrolidin-1-yl]carbonyl}cyclopropanol]
18 | 2.4 | >10 | CCC(=O)N1CC[C@H](Nc2ncnc3c2nc(-c2cncc(N)c2)n3C)C1 [Compound 3-13, 8-(5-aminopyridin-3-yl)-9-methyl-N-[(3S)-1-propanoylpyrrolidin-3-yl]-9H-purin-6-amine]
19 | 20 | >10 | CCCn1c(-c2cnn(CC)c2C)nc2c(N[C@H]3CCN(C(=O)CC)C3)ncnc21 [Compound 9-1, 8-(1-ethyl-5-methyl-1H-pyrazol-4-yl)-N-[(3S)-1-propanoylpyrrolidin-3-yl]-9-propyl-9H-purin-6-amine]
20 | 6.2 | >10 | CCn1c(-c2cnc(C)nc2)nc2c(N[C@H]3CCN(C(=O)OC(C)C)C3)ncnc21 [Compound 13-5, 1-methylethyl (3S)-3-{[9-ethyl-8-(2-methylpyrimidin-5-yl)-9H-purin-6-yl]amino}pyrrolidine-1-carboxylate]
21 | 110 | >10 | CCn1c(CCCO)nc2c(N[C@H]3CCN(C(=O)C4CC4)C3)ncnc21 [Compound 7-6, 3-(6-{[(3S)-1-(cyclopropylcarbonyl)pyrrolidin-3-yl]amino}-9-ethyl-9H-purin-8-yl)propan-1-ol]
22 | 13 | >10 | CCn1c(-c2cnc(C)nc2)nc2c(N[C@H]3CCN(C(=O)C4CC(=O)N(C(C)C)C4)C3)ncnc21 (mixture of isomers) [Compound 2-81, (R and S)-4-{[(3S)-3-{[9-ethyl-8-(2-methylpyrimidin-5-yl)-9H-purin-6-yl]amino}pyrrolidin-1-yl]carbonyl}-1-(1-methylethyl)pyrrolidin-2-one]
23 | 14 | >10 | CCn1c(-c2cnc(C)nc2)nc2c(N[C@H]3CCN(c4nccc5sccc45)C3)ncnc21 [Compound 4-13, 9-ethyl-8-(2-methylpyrimidin-5-yl)-N-[(3S)-1-thieno[3,2-c]pyridin-4-y 1pyrrolidin-3-yl]-9H-purin-6-amine]
24 | 4 | >10 | CCC(=O)N1CC[C@H](Nc2ncnc3c2nc(-c2ccc(OC)nc2)n3C)C1 [Compound 3-31, 8-(6-methoxypyridin-3-yl)-9-methyl-N-[(3S)-1-propanoylpyrrolidin-3-yl]-9H-purin-6-amine]
25 | 250 | >10 | CCn1ncc(-c2nc3c(N[C@@H]4CCCN(C(=O)OC(C)(C)C)C4)ncnc3n2C)c1C [Compound 1-11, (R)-tert-butyl 3-((8-(1-ethyl-5-methyl-1H-pyrazol-4-yl)-9-methyl-9H-purin-6-yl)amino)piperidine-1-carboxylate]
26 | 2.4 | >10 | CCn1c(-c2cnc(C)nc2)nc2c(N[C@H]3CCN(C(=O)C4CCOCC4)C3)ncnc21 [Compound 2-18, (S)-(3-((9-ethyl-8-(2-methylpyrimidin-5-yl)-9H-purin-6-yl)amino)pyrrolidin-1-yl)(tetrahydro-2H-pyran-4-yl)methanone]
27 | 4.1 | >10 | CCn1c(-c2cnc(C)nc2)nc2c(N[C@H]3CCN(C(=O)OCCOC)C3)ncnc21 [Compound 13-7, 2-methoxyethyl (3S)-3-{[9-ethyl-8-(2-methylpyrimidin-5-yl)-9H-purin-6-yl]amino}pyrrolidine-1-carboxylate]
28 | < 1 | >10 | CCn1c(-c2cnc(C)nc2)nc2c(N[C@H]3CCN(C(=O)OC(C)(C)C)C3)ncnc21 [Compound 1-13, (S)-tert-butyl 3-((9-ethyl-8-(2-methylpyrimidin-5-yl)-9H-purin-6-yl)amino)pyrrolidine-1-carboxylate]
29 | 140 | >10 | CCC(=O)N1CC[C@H](Nc2ncnc3c2nc(CC(C)C)n3C)C1 [Compound 7-3, 9-methyl-8-(2-methylpropyl)-N-[(3S)-1-propanoylpyrrolidin-3-yl]-9H-purin-6-amine]
